Reference: patent US6747027B1, “Thiol sulfonamide metalloprotease inhibitors” (Pharmacia Corporation, priority 1996, dated 2004)
Where a name gives a salt, the structure may show the parent alone.

Assays:
[1] = molecular target: T1, recombinant human MMP-13 (Homo sapiens, UniProt P45452); assay: In vitro metalloprotease inhibition, fluorogenic peptide assay (MMP-13); type: biochemical; details: recombinant human MMP-13, APMA activated; fluorogenic MCA peptide substrate 4 uM; pH 7.5, room temperature
T1 construct: made in house
Description: (§1) Certain of the compounds prepared in the manner described in Examples 1 to 223 were tested for activity by an in vitro assay. Following the procedures of Knight et al., FEBS Lett. 296(3):263 (1992). Briefly, 4-aminophenylmercuric acetate (APMA) or trypsin activated MMPs were incubated with various concentrations of the inhibitor compound at room temperature for 5 minutes (0.02% 2-mercapto-ethanol added to buffer for thiol compounds with 5 minutes or overnight incubation). More specifically, recombinant human MMP-13 and MMP-1 enzymes were prepared in laboratories of the inventors' employer. MMP-13 was expressed in baculovirus as a proenzyme, and purified first over a heparin agarose column and then over a chelating zinc chloride column. The proenzyme was activated by APMA for use in the assay. MMP-1 expressed in transfected HT-1080 was provided by Dr. Howard Welgus of Washington University, St. Louis, Mo. The enzyme was also activated using APMA and was then purified over a hydroxamic acid column.
(§2) The enzyme substrate is a methoxycoumarin-containing polypeptide having the following sequence:
(§3) MCA-ProLeuGlyLeuDpaAlaArgNH^2, wherein MCA is methoxycoumarin and Dpa is 3-(2,4-dinitrophenyl)-L-2,3-diaminopropionyl alanine. This substrate is commercially available from Baychem as product M-1895.
(§4) The buffer used for assays contained 100 mM Tris-HCl, 100 mM NaCl, 10 mM CaCl2 and 0.05 percent polyethyleneglycol(23) lauryl ether at a pH value of 7.5. Assays were carried out at room temperature, and dimethyl sulfoxide (DMSO) at a final concentration of 1 percent was used to dissolve inhibitor compound.
(§5) The assayed inhibitor compound in DMSO/buffer solution was compared to an equal amount of DMSO/buffer with no inhibitor as control using microfluor™ white plates (Dynatech). The inhibitor or control solution was maintained in the plate for 10 minutes and the substrate was added to provide a final concentration of 4 uM.
(§6) In the absence of inhibitor activity, a fluorogenic peptide is cleaved at the gly-leu peptide bond, separating the highly fluorogenic peptide from a 2.4-dinitrophenyl quencher, resulting in an increase of fluorescence intensity (excitation at 328 nm/emmision at 415 nm). Inhibition was measured as a reduction in fluorescent intensity as a function of inhibitor concentration, using a Perkin Elmer L550 plate reader. The IC50 values were calculated from those values. The results are set forth in the Inhibition Table below, reported in terms of IC50 to three significant figures.

[2] = molecular target: T2, recombinant human MMP-1 (Homo sapiens, UniProt P03956); assay: In vitro metalloprotease inhibition, fluorogenic peptide assay (MMP-1); type: biochemical; details: recombinant human MMP-1, APMA activated; fluorogenic MCA peptide substrate 4 uM; pH 7.5, room temperature
T2 construct: made in house; host or cells: transfected HT-1080 cells (provided by Dr. Howard Welgus, Washington University)
T2 sequence (P03956 100-469): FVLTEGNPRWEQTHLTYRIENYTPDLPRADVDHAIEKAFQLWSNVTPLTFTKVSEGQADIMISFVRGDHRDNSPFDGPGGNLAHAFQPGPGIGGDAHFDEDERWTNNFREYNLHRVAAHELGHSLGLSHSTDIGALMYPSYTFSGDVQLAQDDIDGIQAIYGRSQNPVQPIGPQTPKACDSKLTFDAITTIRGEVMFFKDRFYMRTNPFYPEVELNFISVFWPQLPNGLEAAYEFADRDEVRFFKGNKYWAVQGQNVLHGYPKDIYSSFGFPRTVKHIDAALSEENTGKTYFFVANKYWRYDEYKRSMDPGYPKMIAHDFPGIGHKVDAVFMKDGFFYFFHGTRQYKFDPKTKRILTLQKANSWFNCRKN
Description: as §1, §2, §3, §4, §5, §6

| IC50 [1] [nM] | IC50 [2] [nM] | Molecule |
| --- | --- | --- |
| < 0.5 | 2100 | COc1ccc(-c2ccc(S(=O)(=O)N(C)[C@H](C)CS)cc2)cc1 [Example 124] |
| 40 | 2000 | COc1ccc(S(=O)(=O)N(Cc2ncc[nH]2)[C@H](C)CS)cc1 [Example 111] |
| 30 | > 10000 | C[C@H](CS)NS(=O)(=O)c1ccc(Sc2ccccc2)cc1 [Example 101] |
| 2.7 | 4000 | CCCCOc1ccc(S(=O)(=O)N(CCN2CCOCC2)[C@H](C)CS)cc1 [Example 107] |
| 0.25 | 125 | C[C@H](CS)N(CCN1CCOCC1)S(=O)(=O)c1ccc(Oc2ccccc2)cc1 [Example 113] |
| 17 | > 10000 | CCCCCc1ccc(S(=O)(=O)N[C@@H](CS)C(N)=O)cc1 [Example 96, N-[4-(n-Pentyl)-phenyl]sulfonyl-L-cysteine-NH2] |
| 1.5 | > 10000 | C[C@H](CS)NS(=O)(=O)c1ccc(/N=N/c2ccc(N(C)C)cc2)cc1 [Example 217] |
| 3.5 | > 100 | CC(C)Oc1ccc(-c2ccc(S(=O)(=O)N(CCN3CCOCC3)[C@@H](CS)C(N)=O)cc2)cc1 [Example 126] |
| 2.5 | 2900 | CCCCOc1ccc(S(=O)(=O)N(CCN2CCOCC2)[C@@H](CS)C(=O)NC)cc1 [Example 176] |
| 1600 | > 10000 | CCCCOc1ccc(S(=O)(=O)NC(CO)CS)cc1 (centres unmarked) [Example 110] |
| 47 | > 10000 | C[C@H](CSC(=O)c1cccs1)N(CCN1CCOCC1)S(=O)(=O)c1ccc(Sc2ccccc2)cc1 [Example 132] |
| 190 | > 10000 | CCCCOc1ccc(S(=O)(=O)N(CCC(C)C)[C@@H](CS)C(N)=O)cc1 [Example 208] |
| 4250 | > 10000 | Cc1ccccc1-c1ccc(S(=O)(=O)N(C)[C@H](C)CS)cc1 [Example 122] |
| 200 | > 10000 | CC(=O)SC[C@@H](C(N)=O)N(CCN1CCOCC1)S(=O)(=O)c1ccc(Sc2ccccc2)cc1 [Example 216] |
| > 10000 | > 10000 | C[C@H](CS)NS(=O)(=O)c1ccc(Cc2ncc(C(F)(F)F)cc2Cl)s1 [Example 155] |
| 115 | > 10000 | COc1cccc(-c2ccc(S(=O)(=O)N(C)[C@H](C)CS)cc2)c1 [Example 123] |
| 1.1 | 5300 | NC(=O)[C@H](CS)N(CCN1CCOCC1)S(=O)(=O)c1ccc(NC(=O)c2ccc(Br)cc2)cc1 [Example 222, N-(4-(4′-bromobenzoyl)amino)phenylsulfonyl-N-(4-(morpholinoethyl))-L-cysteine amide] |
| 1100 | > 10000 | CCCCOc1ccc(S(=O)(=O)N[C@@H](CS)C(=O)N[C@@H](Cc2ccccc2)C(N)=O)cc1 [Example 186] |
| 1.4 | 7000 | NC(=O)[C@H](CS)N(CCN1CCOCC1)S(=O)(=O)c1ccc(NC(=O)c2ccc(Cl)cc2)cc1 [Example 220, N-(4-(4′-chlorobenzoyl)amino)phenylsulfonyl-N-(4-(morpholinoethyl))-L-cysteine amide] |
| 150 | 4000 | COc1ccc(S(=O)(=O)N(Cc2ccsc2)[C@H](C)CS)cc1 [Example 112] |
| 170 | > 10000 | CC(=O)Nc1ccc(S(=O)(=O)N(C)[C@@H](CS)C(N)=O)cc1 [Example 203] |

Further lines, the molecule ahead of its results:

| Molecule | IC50 [1] [nM] | IC50 [2] [nM] |
| --- | --- | --- |
| COc1ccc(S(=O)(=O)N(CC(C)C)[C@H](C)CS)cc1 [Example 14C, N-(2-Mercapto-1R-methylethyl)-N-(2-methylpropyl)-4-methoxybenzenesulfonamide] | 46 | 1060 |
| COc1ccc(S(=O)(=O)N(Cc2ccccc2)C(CS)Cc2ccccc2)cc1 (centres unmarked) [Example 57, N-(2-Mercapto-1R,S-phenylmethyl)-N-phenylmethyl-4-methoxybenzenesulfonamide] | 5000 | > 10000 |
| C[C@H](CS)NS(=O)(=O)c1ccc(OC(F)(F)F)cc1 [Example 75, N-(2-mercapto-1R-methylethyl)-4-(trifluoromethoxy)-benzenesulfonamide] | 1000 | 5000 |
| CCCCOc1ccc(S(=O)(=O)N(Cc2ccccc2)[C@H](C)CS)cc1 [Example 17C] | 260 | > 10000 |
| CCCCOc1ccc(S(=O)(=O)N(CCN2CCOCC2)[C@H](C)CS)cc1 [Example 45C, N-(2-Mercapto-1R-methylethyl)-N-[2-(4-morpholino)ethyl]-4-(n-butoxy)benzenesulfonamide] | 3 | 3200 |
| N-(2-Mercapto-1R-methylethyl)-N-[2-(4-morpholino)ethyl]-4-(thiophenyl)benzenesulfonamide Hydrochloride [Example 91D] | 0.7 | > 10000 |
| COc1ccc(S(=O)(=O)N(Cc2ccccc2)[C@H](CS)C(C)C)cc1 [Example 33D, N-[(1S-Mercaptomethyl)-2-methylpropyl]-4-methoxy-N-(phenylmethyl)benzenesulfonamide] | > 10000 | > 10000 |
| N-(2-mercapto-1R-methylethyl)-4-methylbenzenesulfonamide [Example 68] | 1720 | > 10000 |
| CCCCCc1ccc(S(=O)(=O)N(CCN2CCOCC2)[C@H](C)CS)cc1 [Example 54, N-(2-Mercapto-1R-methylethyl)-N-[2-(4-morpholino)ethyl]-4-(n-pentyl)benzenesulfonamide] | 7 | 9000 |
| COc1ccc(S(=O)(=O)N(Cc2cccnc2)[C@H](C)CS)cc1 [Example 49, N-(2-Mercapto-1-R-methylethyl)-N-(3-pyridylmethyl)-4-methoxybenzenesulfonamide] | 17.5 | 300 |
| NC(=O)[C@H](CS)NS(=O)(=O)c1ccc(I)cc1 [Example 95, N-(4-Iodophenyl)sulfonyl-L-cysteine-NH2] | 20 | 800 |
| CCCCOc1ccc(S(=O)(=O)N(CCN2CCCCC2)[C@H](C)CS)cc1 [Example 46, N-(2-Mercapto-1R-methylethyl)-N-[2-(1-piperidino)ethyl]-4-(n-butoxy)benzenesulfonamide] | 4 | 3500 |
| CCOc1ccc(S(=O)(=O)N(C)[C@H](C)CS)cc1 [Example 38C, N-(2-Mercapto-1R-methylethyl)-N-methyl-4-ethoxybenzenesulfonamide] | 31 | 2500 |
| C[C@H](CS)N(CCN1CCCCC1)S(=O)(=O)c1ccc(Sc2ccccc2)cc1 [Example 92D, N-(2-Mercapto-1R-methylethyl)-N-[2-(1-piperidino)ethyl]-4-(thiophenyl)benzenesulfonamide Hydrochloride] | 0.7 | 6000 |
| C[C@H](CS)NS(=O)(=O)c1ccc(N=Nc2ccccc2)cc1 [Example 89, N-(2-mercapto-1R-methylethyl)-4-phenylazobenzenesulfonamide] | 90 | > 10000 |
| COc1ccc(S(=O)(=O)N(C)Cc2ccccc2S)cc1 [Example 44, N-[(2-Mercaptophenyl)methyl]-N-methyl-4-methoxybenzenesulfonamide] | 400 | > 10000 |
| N-(2-Mercapto-1S-methylethyl)-N-(phenylmethyl)-4-methoxybenzenesulfonamide [Example 13C] | 2000 | > 10000 |
| COc1ccc(S(=O)(=O)N2CCC(S)C2)cc1 (centres unmarked) [Example 26, 1-[(4-Methoxyphenyl)sulfonyl]-3-mercaptopyrrolidine] | 250 | > 10000 |
| COC(=O)[C@H](CSSC[C@H](NS(=O)(=O)c1ccc(OC)cc1)C(=O)OC)NS(=O)(=O)c1ccc(OC)cc1 [Example 58] | 200 | 6000 |
